Literature values as cited in patent US20260335281A1, “PHARMACEUTICAL COMPOSITION COMPRISING CENTANAFADINE” (OTSUKA PHARMACEUTICAL CO., LTD., priority 2022, published 2026).

Columns and labels:
[1] = tested on: norepinephrine (NE) reuptake
[2] = tested on: serotonin (5-HT) reuptake
[3] = fold less than against norepinephrine reuptake, background statement

c1ccc2cc([C@]34CNC[C@H]3C4)ccc2c1 [(1R,5S)-1-(naphthalen-2-yl)-3-azabicyclo[3.1.0]hexane]
effectiveness against norepinephrine (NE) reuptake ([1]; compared with DA and 5-HT reuptake, background statement): most effective
inhibition of norepinephrine reuptake ([1]; in words, PL 1 (JP 5184354 B)): can inhibit the reuptake
effectiveness against serotonin (5-HT) reuptake, fold less [2, 3]: 14 fold
inhibition of serotonin reuptake ([2]; in words, PL 1 (JP 5184354 B)): can inhibit the reuptake
effectiveness against dopamine (DA) reuptake, fold less (dopamine (DA) reuptake; [3]): 6 fold
inhibition of dopamine reuptake (dopamine (DA) reuptake; in words, PL 1 (JP 5184354 B)): can inhibit the reuptake
